Data as given in DBAASP.
Values after ≈ are worked out from the molar mass of the structure shown.

Key:
Test in all cases: ≥ marks a high value that may be exact or a test limit, other limits are often not marked, values filed in µg/mL are converted to µM
[1] = system: Enterococcus faecalis ATCC 29212
[2] = system: Escherichia coli ATCC 25922
[3] = system: Staphylococcus aureus NCTC 8325
[4] = system: Escherichia coli O157:H7 282
Escherichia coli U7103 = system: Escherichia coli U7103
Staphylococcus aureus = system: Staphylococcus aureus
[5] = system: Escherichia coli 0152 EIEC1
[6] = system: Escherichia coli AX-128-3-3
[7] = system: Escherichia coli O157:H7 734/94
Escherichia coli U7794 = system: Escherichia coli U7794
[8] = system: Pseudomonas aeruginosa ATCC 27853
Candida albicans = system: Candida albicans
[9] = system: Escherichia coli 0112 EIEC27
[10] = system: Enterobacter cloacae NHTCC 53001
[11] = system: Escherichia coli ATCC 35218
[12] = system: Escherichia coli 0143 EIEC7
[13] = system: Escherichia coli O6:K15:H31 536
[14] = system: Escherichia coli AX-054-1-3
[15] = system: Escherichia coli O26:H11 3
Escherichia coli = system: Escherichia coli
[16] = system: Escherichia coli O157:H7 CB6392
[17] = system: Escherichia coli AX-100-3-1
[18] = system: Staphylococcus epidermidis RP62A
[19] = system: Escherichia coli O157:H7 30328
[20] = system: Klebsiella pneumoniae KK3 9904
[21] = system: Escherichia coli 0112 EIEC26
[22] = system: Escherichia coli O26:H- CB6418
[23] = system: Proteus mirabilis ATCC 25933
[24] = system: Escherichia coli AX-109-2-3
[25] = system: Escherichia coli 0164 EIEC6
Streptococcus iniae = system: Streptococcus iniae
[26] = system: Enterobacter cloacae BCRC 10401
[27] = system: Streptococcus equinus BCRC 14729
[28] = system: Pseudomonas aeruginosa BCRC 10944
[29] = system: Yersinia enterocolitica BCRC 13999
[30] = system: Vibrio anguillarum serotype O1
[31] = system: Klebsiella oxytoca BCRC 13985
[32] = system: Listeria monocytogenes BCRC 14845
[33] = system: Vibrio alginolyticus BCRC 12829
Vibrio parahaemolyticus = system: Vibrio parahaemolyticus
Vibrio alginolyticus = system: Vibrio alginolyticus
Vibrio harveyi = system: Vibrio harveyi
[34] = system: Staphylococcus xylosus BCRC 12930
[35] = system: Staphylococcus aureus BCRC 10781
[36] = system: Vibrio parahaemolyticus BCRC 10806
[37] = system: Staphylococcus aureus BCRC 10780
[38] = system: Klebsiella aerogenes BCRC 10370
[39] = system: Escherichia coli BCRC 10675
Lactococcus garvieae = system: Lactococcus garvieae
[40] = system: Staphylococcus aureus ATCC 6538
[41] = system: Staphylococcus epidermidis ATCC 12228
[42] = system: Micrococcus luteus ATCC 9341
[43] = system: Corynebacterium diphtheriae ATCC 8024
[44] = system: Pseudomonas aeruginosa ATCC 9027
[45] = system: Escherichia coli ATCC 2592
[46] = system: Bacillus subtilis ATCC 6633
[47] = system: Candida albicans ATCC 36232
[48] = system: Shigella flexneri ATCC 203

CC[C@H](C)[C@H](NC(=O)[C@H](CCCCN)NC(=O)[C@H](CS)NC(=O)[C@H](C)NC(=O)[C@@H](NC(=O)[C@H](Cc1ccccc1)NC(=O)CNC(=O)[C@H](CC(C)C)NC(=O)CNC(=O)[C@@H](NC(=O)[C@H](CCCCN)NC(=O)CNC(=O)[C@H](CC(C)C)NC(=O)[C@H](CCCCN)NC(=O)[C@H](CCCCN)NC(=O)[C@H](CC(C)C)NC(=O)[C@@H](NC(=O)[C@H](CO)NC(=O)[C@H](CC(C)C)NC(=O)[C@H](CCSC)NC(=O)[C@@H](N)CO)C(C)C)C(C)C)C(C)C)C(=O)N[C@@H](CC(N)=O)C(=O)N[C@@H](CCCCN)C(=O)N[C@@H](CCC(N)=O)C(=O)N[C@@H](CS)C(=O)O [SMLSVLKKLGKVGLGFVACKINKQC]
MIC [1]: 20 µM (≈ 53.3 µg/mL) | MIC [2]: 10 µM (≈ 26.7 µg/mL) | MIC [3]: 10 µM (≈ 26.7 µg/mL) | MIC [4]: 2.5 µM (≈ 6.66 µg/mL) | MIC (Escherichia coli U7103): 2.5 µM (≈ 6.66 µg/mL) | MIC (Staphylococcus aureus): 10 µM (≈ 26.7 µg/mL) | MIC [5]: 5 µM (≈ 13.3 µg/mL) | MIC [6]: 5 µM (≈ 13.3 µg/mL) | MIC [7]: 5 µM (≈ 13.3 µg/mL) | MIC (Escherichia coli U7794): 5 µM (≈ 13.3 µg/mL) | MIC [8]: 10 µM (≈ 26.7 µg/mL) | MIC (Candida albicans): 20 µM (≈ 53.3 µg/mL) | MIC [9]: 5 µM (≈ 13.3 µg/mL) | MIC [10]: 10 µM (≈ 26.7 µg/mL) | MIC [11]: 5 µM (≈ 13.3 µg/mL) | MIC [12]: 5 µM (≈ 13.3 µg/mL) | MIC [13]: 2.5 µM (≈ 6.66 µg/mL) | MIC [14]: 10 µM (≈ 26.7 µg/mL) | MIC [15]: 2.5 µM (≈ 6.66 µg/mL) | MIC (Escherichia coli): 5 µM (≈ 13.3 µg/mL) | MIC [16]: 5 µM (≈ 13.3 µg/mL) | MIC [17]: 5 µM (≈ 13.3 µg/mL) | MIC [18]: 10 µM (≈ 26.7 µg/mL) | MIC [19]: 5 µM (≈ 13.3 µg/mL) | MIC [20]: 10 µM (≈ 26.7 µg/mL) | MIC [21]: 5 µM (≈ 13.3 µg/mL) | MIC [22]: 5 µM (≈ 13.3 µg/mL) | MIC [23]: ≥ 100 µM | MIC [24]: 5 µM (≈ 13.3 µg/mL) | MIC [25]: 5 µM (≈ 13.3 µg/mL)

CC[C@H](C)[C@H](NC(=O)[C@@H](NC(=O)[C@H](Cc1ccccc1)NC(=O)[C@H](Cc1ccc(O)cc1)NC(=O)[C@H](CCCCN)NC(=O)[C@H](CCCCN)NC(=O)[C@H](CC(C)C)NC(=O)[C@H](C)NC(=O)[C@H](CC(N)=O)NC(=O)[C@H](C)NC(=O)CN)[C@@H](C)O)C(=O)N[C@@H](CC(C)C)C(=O)N[C@@H](CCCCN)C(=O)N[C@@H](CCCCN)C(=O)N[C@@H](Cc1ccccc1)C(=O)N[C@@H](Cc1ccccc1)C(=O)N[C@@H](CCCCN)C(=O)N[C@@H](CC(C)C)C(=O)N[C@@H](C)C(=O)N[C@@H](Cc1c[nH]c2ccccc12)C(=O)O [GANALKKYFTILKKFFKLAW]
MIC (Streptococcus iniae): 26.8 µM (≈ 64 µg/mL) | MIC [26]: 3.35 µM (≈ 8 µg/mL) | MIC [27]: ≥ 53.6 µM | MIC [28]: 6.7 µM (≈ 16 µg/mL) | MIC [29]: 13.4 µM (≈ 32 µg/mL) | MIC [30]: 6.7 µM (≈ 16 µg/mL) | MIC [31]: 26.8 µM (≈ 64 µg/mL) | MIC [32]: 6.7 µM (≈ 16 µg/mL) | MIC [33]: 26.8 µM (≈ 64 µg/mL) | MIC (Vibrio parahaemolyticus): 6.7 µM (≈ 16 µg/mL) | MIC (Vibrio alginolyticus): 3.35 µM (≈ 8 µg/mL) | MIC (Vibrio harveyi): 1.68 µM (≈ 4 µg/mL) | MIC [34]: 6.7 µM (≈ 16 µg/mL) | MIC [35]: 6.7 µM (≈ 16 µg/mL) | MIC [36]: 3.35 µM (≈ 8 µg/mL) | MIC [37]: 6.7 µM (≈ 16 µg/mL) | MIC [38]: 6.7 µM (≈ 16 µg/mL) | MIC [39]: 3.35 µM (≈ 8 µg/mL) | MIC (Lactococcus garvieae): 26.8 µM (≈ 64 µg/mL)

CC(C)[C@H](NC(=O)[C@H](CS)NC(=O)[C@@H](NC(=O)[C@H](CCCN=C(N)N)NC(=O)[C@H](CCCCN)NC(=O)CNC(=O)[C@H](CC(N)=O)NC(=O)[C@H](CS)NC(=O)[C@@H](N)Cc1ccc(O)cc1)C(C)C)C(=O)N[C@@H](CS)C(=O)N[C@@H](CCCN=C(N)N)C(N)=O [YCNGKRVCVCR]
MIC [40]: 23.1 µM (≈ 30 µg/mL) | MIC [41]: 11.5 µM (≈ 15 µg/mL) | MIC [42]: 23.1 µM (≈ 30 µg/mL) | MIC [43]: 5.77 µM (≈ 7.49 µg/mL) | MIC (Staphylococcus aureus): > 76.9 µM | MIC [44]: 38.4 µM (≈ 50 µg/mL) | MIC [45]: 11.5 µM (≈ 15 µg/mL) | MIC [46]: 11.5 µM (≈ 15 µg/mL) | MIC [47]: 11.5 µM (≈ 15 µg/mL) | MIC [48]: 11.5 µM (≈ 15 µg/mL)
